The values below come from patent US20060241096A1, “Agent for preventing or treating organ functional disorders and organ dysfunction” (priority 2001, published 2006).

One may read the melting point as the temperature, or range, at which the solid turns liquid.

One data set relates to myocardial infarction. The data set is described as follows: Effect on myocardial infarction (Test Example 5). Conditions: male Wistar rats, left coronary artery ligated 25 min, 2 hrs reperfusion, mean ± standard error, N = 7-10. In kind it is in vivo, rat. Here is the method:
Each of 6-week old male Wistar rats (7-10 rats per group) was forced oral administration of vehicle, test compound 1 (2, 20 mg/kg), Atorvastatin (2, 20 mg/kg), Simvastatin (2, 20 mg/kg) using a gastric sonde by the volume of 1 mL/kg and once per day for 15 days. After 1 hr of the final administration, the anterior descending-branch of left coronary artery was ligated and reperfused after 25 min. After 2 hrs of reperfusion, Evance blue was intravenously injected from the right cervical vein so that the non-ischemic area was stained and can be distinguished from the ischemic area, and the rats were slaughtered. The ischemic area was carved out, and the living area was stained using p-nitroblue tetrazolium and distinguished from the necrotic area (portion of myocardial infarction). The area of myocardial infarction was calculated by the weight ratio relative to the ischemic area (Table 5).

Data set [1] concerns ubiquinone (CoQ9) in heart. Nature of the data set: Ubiquinone increasing effect in heart (Test Example 1). The settings on record: male SD rats, mean ± standard error, N = 8. In kind it is in vivo, rat. The procedure:
(§1) Each of 6-week old male SD rats (eight rats per group) was forced oral administration of a vehicle or test compound 1 using a gastric sonde by the volume of 5 mL/kg so that the doses became 6, 20, 60 mg/kg, respectively, once a day for 14 days. On the morning after 14 times of administration, the animals were beheaded to slaughter. Hearts were collected immediately, frozen in liquid nitrogen and stored at −80° C. On the following day, the hearts were homogenized and oxidized with iron(III) chloride. After extraction with ethanol/hexane, the concentration of ubiquinone was determined by HPLC (Table 1).

The subject of data set [2] is ubiquinone (CoQ9, CoQ10) in brain. Nature of the data set: Ubiquinone increasing effect in brain (Test Example 3). The settings on record: male SD rats, 14 administrations, arteria cerebri media occluded 2 h, 8 hrs reperfusion, right cerebral cortices and striata, mean ± standard error, N = 8. Format: in vivo, rat. The procedure: Each of 6-week old male SD rats (eight rats per group) was forced oral administration of a vehicle or test compound 1 using a gastric sonde by the volume of 5 mL/kg so that the doses became 2, 20 mg/kg, respectively. The day after 14 times of administration, a silicone plug was inserted from the carotid artery under halothane anesthetic to occlude proximal portion of the arteria cerebri media. After two hours, the plug was removed under light anesthetic, and reperfusion was carried out. After 8 hrs of reperfusion, the rats were beheaded to slaughter. The right cerebral cortices and striata were collected, frozen on dry ice and preserved at −80° C. On the following day, the right cerebral cortices and striata were homogenized and oxidized with iron(III) chloride. After extraction with ethanol/hexane, the concentration of ubiquinone was determined by HPLC (Table 3).

In the next data set the test system is cerebral infarction. The data set is described as follows: Cerebral infarction suppressing effect (Test Example 4). Conditions: male SD rats, 14 administrations, arteria cerebri media occluded 2 h, 48 hrs reperfusion, TTC staining, mean ± standard error, N = 19-22. In kind it is in vivo, rat. Here is the method:
Each of 6-week old male SD rats (19 to 22 rats per group) was forced oral administration of a vehicle or test compound 1 using a gastric sonde by the volume of 5 mL/kg so that the doses became 2, 20 mg/kg, respectively, using a gastric sonde. The day after 14 times of administration, a silicone plug was inserted from the carotid artery under halothane anesthetic to occlude proximal portion of the arteria cerebri media. After two hours, the plug was removed under light anesthetic, and reperfusion was carried out. After 48 hrs of reperfusion, the rats were beheaded to slaughter. Six pieces of sliced brain from the forehead (thickness: 2 mm) were carved out and subjected to TTC staining (1% TTC, 37° C., 15 min). The TTC-stained image was photographed by a digital camera, and the area of cerebral infarction was measured by an image analyzer. (Table 4)

For data set [3], the system named is ubiquinone (CoQ9) in liver and heart. Nature of the data set: Ubiquinone increasing effect in liver and heart (Test Example 2). Conditions: male SD rats, mean ± standard error, N = 8. In kind it is in vivo, rat. The procedure:
as §1, with “to slaughter. Liver and hearts were collected” for “to slaughter. Hearts were collected”, “day, the livers and hearts were” for “day, the hearts were”, “HPLC (Table 2).” for “HPLC (Table 1).”

[4] abbreviates: 2 mg/kg oral once per day for 15 days.
The mark [5] stands for this setting: 20 mg/kg oral once per day for 15 days.
Setting [6] is: 6 mg/kg oral once a day for 14 days.
Where [7] appears, read: 20 mg/kg oral once a day for 14 days.
The mark [8] stands for this setting: 60 mg/kg oral once a day for 14 days.

Marks after values point to notes of the source that are not given here.

Regarding `CC(C)c1c(C(=O)Nc2ccccc2)c(-c2ccccc2)c(-c2ccc(F)cc2)n1CC[C@@H](O)C[C@@H](O)CC(=O)O` [Atorvastatin], the “Area of myocardial infarction” value with myocardial infarction (setting [4]) is listed as 51 ± 4 % ischemic area; with myocardial infarction (setting [5]) it was 47 ± 6 % ischemic area.

On to `COc1cccc([C@H]2O[C@H](CC(=O)N3CCC(CC(=O)O)CC3)C(=O)N(CC(C)(C)COC(C)=O)c3ccc(Cl)cc32)c1OC` [Compound 1, N-[[(3R,5S)-1-(3-acetoxy-2,2-dimethylpropyl)-7-chloro-5-(2,3-dimethoxyphenyl)-2-oxo-1,2,3,5-tetrahydro-4,1-benzoxazepin-3-yl]acetyl]piperidine-4-acetic acid], for which the “Amount of CoQ9 in heart” value in data set [1] (setting [6]) was 214.4 ± 6.6 μg/g heart; in data set [1] (setting [7]), 215.3 ± 5.7 μg/g heart; in data set [1] (setting [8]), 225.0 ± 4.6 μg/g heart. Further, the entries for the “Amount of CoQ9 in brain” value in data set [2] (2 mg/kg oral) and in data set [2] (20 mg/kg oral) were 22.0 ± 0.4 μg/g brain and 24.9 ± 0.5 μg/g brain, respectively. Also, the “Amount of CoQ10 in brain” value in data set [2] (2 mg/kg oral) is listed as 13.0 ± 0.3 μg/g brain; in data set [2] (20 mg/kg oral) it was 14.7 ± 0.3 μg/g brain. Further, the entries for the “Volume of cerebral infarction” value in the data set on cerebral infarction (2 mg/kg oral) and in the data set on cerebral infarction (20 mg/kg oral) were 289 ± 27 mm^3 and 220 ± 35* mm^3, respectively. Also, the “Area of myocardial infarction” value came out at 61 ± 4 % ischemic area in the data set with myocardial infarction (setting [4]) and 43 ± 2 % ischemic area with myocardial infarction (setting [5]).

The compound `COc1cccc([C@H]2O[C@H](CC(=O)Nc3cccc(CCC(=O)O)c3)C(=O)N(CC(C)(C)CO)c3ccc(Cl)cc32)c1OC` [Compound 2, 3-[3-[[(3R,5S)-7-chloro-5-(2,3-dimethoxyphenyl)-1-(3-hydroxy-2,2-dimethylpropyl)-2-oxo-1,2,3,5-tetrahydro-4,1-benzoxazepin-3-yl]acetyl]aminophenyl]propionic acid] registered a melting point of 141 to 144 °C. In data set [3] (setting [6]), the “Amount of CoQ9 in heart” value is on record as 202.7 ± 2.7 μg/g heart and the “Amount of CoQ9 in liver” value is reported as 105.2 ± 3.5 μg/g liver. In data set [3] (setting [7]), the “Amount of CoQ9 in heart” value is given as 208.3 ± 4.6 μg/g heart and the “Amount of CoQ9 in liver” value is given as 117.6 ± 4.6 μg/g liver. Also, in data set [3] (setting [8]), the “Amount of CoQ9 in heart” value stood at 204.7 ± 4.0 μg/g heart and the “Amount of CoQ9 in liver” value is reported as 125.4 ± 3.4 μg/g liver.

As to `CCC(C)(C)C(=O)O[C@H]1C[C@@H](C)C=C2C=C[C@H](C)[C@H](CC[C@@H]3C[C@@H](O)CC(=O)O3)[C@H]21` [Simvastatin], the “Area of myocardial infarction” value amounted to 51 ± 3 % ischemic area in the data set with myocardial infarction (setting [4]) and 51 ± 2 % ischemic area in the data set with myocardial infarction (setting [5]).
